From patent US6521623B1, “N,N'-disubstituted benzimidazolone derivatives with affinity at the serotonin and dopamine receptors” (Boehringer Ingelheim Pharma KG, priority 2000, dated 2003)

Experiments:
[1] = molecular target: T1, D4 human receptors (Homo sapiens, UniProt P21917); assay: D4 Radioligand Receptor Binding Assay ([3H] YM-09151-2, CHO cell membranes); settings: compound 10^−7 M, singlicate, [3H] YM-09151-2 0.15-0.25 nM
T1 construct: expressed in transfected cells; host or cells: CHO cells
T1 sequence (P21917 1-419): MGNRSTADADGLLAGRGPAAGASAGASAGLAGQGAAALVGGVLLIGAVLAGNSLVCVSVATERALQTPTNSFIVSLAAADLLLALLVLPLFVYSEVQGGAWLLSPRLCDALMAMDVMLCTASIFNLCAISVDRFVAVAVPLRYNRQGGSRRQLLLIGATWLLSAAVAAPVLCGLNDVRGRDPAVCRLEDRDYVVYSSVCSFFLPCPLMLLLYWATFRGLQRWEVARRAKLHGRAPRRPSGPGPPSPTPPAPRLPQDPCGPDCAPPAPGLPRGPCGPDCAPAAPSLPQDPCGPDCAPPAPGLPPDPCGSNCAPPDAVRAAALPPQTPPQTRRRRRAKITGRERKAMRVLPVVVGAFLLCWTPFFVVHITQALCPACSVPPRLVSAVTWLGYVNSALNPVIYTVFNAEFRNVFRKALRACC
Method: D4 Radioligand Receptor Binding Assay
Membranes from CHO cells expressing D4 human receptors, were suspended in incubation buffer.
Binding assays were performed in MultiProbe 204 pipetting system (Packard), according to a predetermined mapping, consistent with the software Screen. The compounds were tested in singlicate at one concentration (10^−7 M) in a total volume of 1000 μl (980 μl of diluted membranes, 10 μl DMSO or unlabelled ligand and 10 μl of [^3H] YM-09151-2 (0.15-0.25 nM). After incubation for 120 minutes at 27° C., the reaction was stopped by rapid filtration through Tomtec Cell Harvester (48 wells) using Filtermat B (presoaked in 0.1% PEI) filters. Filters were washed with ice-cold 50 mM Tris-HCl (pH 7.4) buffer (9×700 μl), dried, covered with MeltiLex B/HS (Wallac) scintillator sheets and heated in oven at 80° C. to 90° C. for about 10 minutes, transferred into plastic sample bags (Wallac), sealed, and put into 1024 Beta Plate scintillation counter (Wallac). Non-specific binding was determined in the presence of clozapine dissolved in DMSO to a final concentration of 10^−5 M.
(§1) The specific radioligand binding to the receptor was defined by the difference between total binding and non-specific binding, determined in the presence of an excess of unlabelled ligand. Results were expressed as percentage of control specific binding obtained in the presence of the compounds.

[2] = molecular target: T2, 5-HT1A (Homo sapiens, UniProt P08908); assay: 5HT1A Radioligand Receptor Binding Assay ([3H]-8-OH-DPAT, CHO cell membranes); set-up: expressed in transfected cells; host or cells: CHO cells; settings: CHO membranes, human 5-HT1A; for 5-HT1A Receptor Binding Assay % inhibition (10^−7 M) / inhibition at 0.1 µM: compound 10^−7 M, singlicate, [3H]-8-OH-DPAT 0.6-0.7 nM; for IC50: [3H]-8-OH-DPAT, read-out: 5-HT1A Receptor Binding IC50
T2 sequence (P08908 1-422): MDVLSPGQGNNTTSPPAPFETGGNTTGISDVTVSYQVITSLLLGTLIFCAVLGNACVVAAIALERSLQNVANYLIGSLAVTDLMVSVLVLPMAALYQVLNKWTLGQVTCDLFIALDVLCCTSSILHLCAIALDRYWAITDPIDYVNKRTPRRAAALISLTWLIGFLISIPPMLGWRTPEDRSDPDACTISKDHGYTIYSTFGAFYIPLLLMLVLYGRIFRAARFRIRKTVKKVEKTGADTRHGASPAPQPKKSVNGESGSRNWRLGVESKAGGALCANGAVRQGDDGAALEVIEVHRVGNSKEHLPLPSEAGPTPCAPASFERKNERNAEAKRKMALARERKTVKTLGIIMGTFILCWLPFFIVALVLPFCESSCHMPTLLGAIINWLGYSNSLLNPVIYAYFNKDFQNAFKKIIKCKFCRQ
Method: 5HT1A Radioligand Receptor Binding Assay
Membranes from CHO cells, expressing 5-HT1A human receptors were suspended in incubation buffer.
Binding assays were performed in MultiProbe 204 pipetting system (Packard), according to a predetermined mapping, consistent with the software Screen. The compounds were tested in singlicate at one concentration (10^−7 M) in a total volume of 1000 μl. 980 μl of diluted membranes, 10 μl DMSO or unlabelled ligand and 10 μl of [^3H]-8-OH-DPAT (0.6-0.7 nM) were incubated for 60 minutes at 27° C. The reaction was stopped by rapid filtration through Tomtec Cell Harvester (48 wells) using Filtermat B (presoaked in 0.1% PEI) filters. Filters were washed with ice-cold 50 mM Tris-HCl (pH 7.4) buffer (9×700 μl), dried, covered with MeltiLex B/HS scintillator sheets (Wallac) and heated at 80° C. to 90° C. for about 10 minutes, transferred into plastic sample bags (Wallac), sealed, and put into 1024 Beta Plate scintillation counter (Wallac). Non-specific binding was determined in the presence of 5-HT (10^−5 M).
as §1, with “compounds. The affinity values (IC50) for the compounds were obtained by a nonlinear least squares regression analysis on the basis of a one binding site model.” for “compounds.”

[3] = molecular target: T2, 5-HT1A; assay: 5-HT1 Functional Assay (cAMP) in CHO/5-HT1A cells; assay type: cell-based; set-up: expressed in transfected cells; host or cells: CHO/5-HT1A cells
Method: 5-HT1 Functional Assay (cAMP)
CHO/5-HT1A cells were random seeded at a density of about 200,000/well in 24 well plates the day prior to the experiment. On the day of the experiment, cells were pretreated for 15 minutes at 37° C. with 500 μM isobutylmethylxantine (IBMX) dissolved in culture medium without serum. Wells were then divided in different groups in duplicate as follows: control, 10 μM FSK, 10 μM FSK+1 μM 5-HT as positive standard and 10 μM FSK+10 μM of the different compound under evaluation. Sample solutions were added and incubated for additional 15 minutes at 37° C. After incubation, the medium was aspirated and the reaction stopped by adding 200 μl of lysis buffer. Plates were shaken for 5 minutes, then the lysate was removed and samples were stored at 4° C. until the day of the assay. For the cAMP evaluation, samples were properly diluted and the cAMP content was measured by an enzyme immunoassay system.

COc1ccccc1N1CCN(CCn2c(=O)n(CCO)c3ccccc32)CC1 [Compound 197]
D4 Receptor Binding Assay % inhibition (10^−7 M) [1]: 43% | 5-HT1A Receptor Binding Assay % inhibition (10^−7 M) [2]: 77%

CCNC(=O)OCCn1c(=O)n(CCN2CCN(c3ccccc3OC)CC2)c2ccccc21 [Compound 216]
D4 Receptor Binding Assay % inhibition (10^−7 M) [1]: 44% | 5-HT1A Receptor Binding Assay % inhibition (10^−7 M) [2]: 92%

O=c1n(C/C=C\CN2CCN(c3cccc(Cl)c3)CC2)c2ccccc2n1CCN1CCOCC1 [Compound 263]
inhibition at 0.1 µM [1]: 42% | IC50 [2]: 8.8 nM | inhibition at 0.1 µM [2]: 92%

COCCn1c(=O)n(C/C=C\CN2CCN(c3cccc(C(F)(F)F)c3)CC2)c2ccccc21 [Compound 284]
inhibition at 10 µM [3]: 82% | IC50 [2]: 4.9 nM

COCCn1c(=O)n(C/C=C/CN2CCN(c3cccc(Cl)c3)CC2)c2ccccc21 [Compound 297]
inhibition at 0.1 µM [1]: 34% | IC50 [2]: 7.9 nM | inhibition at 0.1 µM [2]: 96%

COCCn1c(=O)n(C/C=C/CN2CCN(c3cccc(C(F)(F)F)c3)CC2)c2ccccc21 [Compound 301]
inhibition at 10 µM [3]: 83% | IC50 [2]: 2.6 nM

O=c1n(C/C=C\CN2CCc3c([nH]c4ccccc34)C2)c2ccccc2n1CCN1CCCCC1 [Compound 316]
D4 Receptor Binding Assay % inhibition (10^−7 M) [1]: 94% | 5-HT1A Receptor Binding Assay % inhibition (10^−7 M) [2]: 72%

O=c1n(C/C=C\CN2CC=C(c3ccccc3)CC2)c2ccccc2n1CCN1CCCCC1 [Compound 319]
D4 Receptor Binding Assay % inhibition (10^−7 M) [1]: 70% | 5-HT1A Receptor Binding Assay % inhibition (10^−7 M) [2]: 94%

O=c1n(C/C=C/CN2CCN(c3ccccc3)CC2)c2ccccc2n1CCN1CCCCC1 [Compound 327]
D4 Receptor Binding Assay % inhibition (10^−7 M) [1]: 74% | 5-HT1A Receptor Binding Assay % inhibition (10^−7 M) [2]: 78%

O=c1n(C/C=C/CN2CCN(c3cccc(Cl)c3)CC2)c2ccccc2n1CCN1CCCCC1 [Compound 331]
D4 Receptor Binding Assay % inhibition (10^−7 M) [1]: 92% | 5-HT1A Receptor Binding Assay % inhibition (10^−7 M) [2]: 100%

O=c1n(C/C=C/CN2CCN(c3ncccn3)CC2)c2ccccc2n1CCN1CCCCC1 [Compound 332]
D4 Receptor Binding Assay % inhibition (10^−7 M) [1]: 85% | 5-HT1A Receptor Binding Assay % inhibition (10^−7 M) [2]: 78%

O=c1n(C/C=C/CN2CC=C(c3ccccc3)CC2)c2ccccc2n1CCN1CCCCC1 [Compound 336]
D4 Receptor Binding Assay % inhibition (10^−7 M) [1]: 81% | 5-HT1A Receptor Binding Assay % inhibition (10^−7 M) [2]: 90%

O=c1n(C/C=C/CN2CCN(c3cccc(Cl)c3)CC2)c2ccccc2n1CCN1CCOCC1 [Compound 348]
inhibition at 10 µM [3]: 57% | IC50 [2]: 3.5 nM

O=c1n(C/C=C/CN2CCN(c3ncccn3)CC2)c2ccccc2n1CCN1CCOCC1 [Compound 349]
D4 Receptor Binding Assay % inhibition (10^−7 M) [1]: 31% | 5-HT1A Receptor Binding Assay % inhibition (10^−7 M) [2]: 73%

O=c1n(C/C=C\CN2CCN(c3ccccc3)CC2)c2ccccc2n1CCO [Compound 361]
D4 Receptor Binding Assay % inhibition (10^−7 M) [1]: 46% | 5-HT1A Receptor Binding Assay % inhibition (10^−7 M) [2]: 86%

O=c1n(C/C=C\CN2CCN(c3ccccn3)CC2)c2ccccc2n1CCO [Compound 364]
D4 Receptor Binding Assay % inhibition (10^−7 M) [1]: 36% | 5-HT1A Receptor Binding Assay % inhibition (10^−7 M) [2]: 77%

O=c1n(C/C=C\CN2CCN(c3cccc(Cl)c3)CC2)c2ccccc2n1CCO [Compound 365]
inhibition at 0.1 µM [1]: 63% | IC50 [2]: 15 nM

O=c1n(C/C=C\CN2CCc3c([nH]c4ccccc34)C2)c2ccccc2n1CCO [Compound 367]
D4 Receptor Binding Assay % inhibition (10^−7 M) [1]: 90% | 5-HT1A Receptor Binding Assay % inhibition (10^−7 M) [2]: 61%

O=c1n(C/C=C\CN2CCN(c3ccc(Cl)c(Cl)c3)CC2)c2ccccc2n1CCO [Compound 371]
D4 Receptor Binding Assay % inhibition (10^−7 M) [1]: 95% | 5-HT1A Receptor Binding Assay % inhibition (10^−7 M) [2]: 59%

O=c1n(C/C=C/CN2CCN(c3ccccc3)CC2)c2ccccc2n1CCO [Compound 378]
D4 Receptor Binding Assay % inhibition (10^−7 M) [1]: 35% | 5-HT1A Receptor Binding Assay % inhibition (10^−7 M) [2]: 77%

O=c1n(C/C=C/CN2CCN(c3cccc(C(F)(F)F)c3)CC2)c2ccccc2n1CCO [Compound 386]
inhibition at 10 µM [3]: 82% | IC50 [2]: 6.7 nM

CCNC(=O)OCCn1c(=O)n(C/C=C\CN2CCN(c3ccccc3)CC2)c2ccccc21 [Compound 395]
D4 Receptor Binding Assay % inhibition (10^−7 M) [1]: 32% | 5-HT1A Receptor Binding Assay % inhibition (10^−7 M) [2]: 86%

CCNC(=O)OCCn1c(=O)n(C/C=C\CN2CCN(c3cccc(C(F)(F)F)c3)CC2)c2ccccc21 [Compound 403]
inhibition at 10 µM [3]: 84% | IC50 [2]: 5.5 nM

CCNC(=O)OCCn1c(=O)n(C/C=C/CN2CCN(c3ccccc3)CC2)c2ccccc21 [Compound 412]
D4 Receptor Binding Assay % inhibition (10^−7 M) [1]: 39% | 5-HT1A Receptor Binding Assay % inhibition (10^−7 M) [2]: 93%

CCNC(=O)OCCn1c(=O)n(C/C=C/CN2CCN(c3cccc(C(F)(F)F)c3)CC2)c2ccccc21 [Compound 420]
inhibition at 10 µM [3]: 87% | IC50 [2]: 1.8 nM

CCNC(=O)OCCn1c(=O)n(C/C=C/CN2CC=C(c3ccccc3)CC2)c2ccccc21 [Compound 421]
inhibition at 10 µM [3]: 56% | IC50 [2]: 0.66 nM

CC(=O)NCCn1c(=O)n(C/C=C/CN2CCN(c3cccc(C(F)(F)F)c3)CC2)c2ccccc21 [Compound 481]
inhibition at 10 µM [3]: 82% | IC50 [2]: 11 nM

CS(=O)(=O)NCCn1c(=O)n(C/C=C\CN2CCc3c([nH]c4ccccc34)C2)c2ccccc21 [Compound 501]
D4 Receptor Binding Assay % inhibition (10^−7 M) [1]: 63% | 5-HT1A Receptor Binding Assay % inhibition (10^−7 M) [2]: 70%

CS(=O)(=O)NCCn1c(=O)n(C/C=C\CN2CCN(c3ccc(Cl)c(Cl)c3)CC2)c2ccccc21 [Compound 505]
D4 Receptor Binding Assay % inhibition (10^−7 M) [1]: 58% | 5-HT1A Receptor Binding Assay % inhibition (10^−7 M) [2]: 78%

CS(=O)(=O)NCCn1c(=O)n(C/C=C/CN2CCN(c3ccc(Cl)c(Cl)c3)CC2)c2ccccc21 [Compound 527]
D4 Receptor Binding Assay % inhibition (10^−7 M) [1]: 36% | 5-HT1A Receptor Binding Assay % inhibition (10^−7 M) [2]: 73%

COc1ccccc1N1CCN(C/C=C/Cn2c(=O)n(CCNS(C)(=O)=O)c3ccccc32)CC1 [Compound 535]
D4 Receptor Binding Assay % inhibition (10^−7 M) [1]: 39% | 5-HT1A Receptor Binding Assay % inhibition (10^−7 M) [2]: 97%
